Earlier results, collected in patent US20030211945A1, “Natural herbicide compositions” (priority 2002, published 2003).
Where two headings read alike, the source gives them in different places.

Test system: selected weeds

CC(=O)O [acetic acid]
weed control (concentrations of acetic acid below about 5%): variable results
weed control (high concentrations of acetic acid): control selected weeds
